The test system of experiment [1] is neutrophils. In words: neutrophil phagocytosis in vitro. It is filed as cell-based, human. As to conditions: for Phagocytic Index, Study Group / Phagocytic number, Study Group: individual samples. Here is the method:
For evaluating the effect of the preparation on phagocytosis in vitro, blood sample was collected from donor's cubital vein in a test tube containing heparin at a dose of 10 units per ml of blood. 0.8 ml of 3% gelatin prepared based on Medium 199 were added to 2 ml of blood. The test tubes were incubated in a thermostat at 37° C. for 20 minutes. Then the supernatant containing cells was aspirated to a centrifuge tube. Cells were twice washed with Medium 199 with centrifuging at 1,000 rpm. 1 ml of Medium 199 was added to the sediment and neutrophils were counted in Goryaev's chamber. Then, cellular suspension containing 2·10^6 neutrophils in 1 ml was prepared based on Medium 199. Simultaneously, suspension of St. aureus in a concentration of 20·10^6/ml was prepared. After preliminary opsonization with an equal volume of pooled human plasma in a thermostat at 37° C. for 20 minutes, the Staphylococcus suspension was centrifuged and washed with Medium 199. The preparation in 200, 20 and 2 μg/ml concentrations was added to mixture of equal volumes of neutrophils and staphylococci; Medium 199 was added to control test tubes. After incubation in a thermostat at 37° C. for 30 minutes, the test tubes where centrifuged, and preparations were prepared in accordance with the procedure described above. Phagocytic index and phagocytic number for study group were compared with the same for control group.

Experiment [2] in a line: clinical study, treatment of acute intestinal infections (AII). It is filed as in vivo, human. The protocol: Efficacy of the preparation in decreasing the gravity of manifestations of various forms of AII was evaluated in accordance with the used program of study with aid of a three-point scale.
After the study was finished, general evaluation of clinical efficacy and safety of the preparation based on a 4-point scale, depending on nosologic forms, was carried out.

Experiment [3] concerns phagocytic cells. Kind of experiment: phagocytosis in vivo (peritoneal neutrophils and macrophages, St. aureus). On the set-up: species or system Strain C57BL6 mice. Here is the method: Intraperitoneal injection of 3 ml of 3% peptone was made, and 2 hours later the animals were killed with chloroform. The mice were autopsied in aseptic conditions. Liquid was aspirated from abdominal cavity with a Pasteur's pipette and transferred to centrifuge test tubes; then centrifuging was carried out for 10 minutes at 1,000 rpm. […] Similar volume of Strain 1991 St. aureus was added to cells in a proportion of 1:10 proportion and incubated at 37° C. for 30 minutes. After incubation, smears were prepared on slides, fixed in methanol for 20 minutes and processed with Romanovsky-Giemsa's stain for 30 minutes. For evaluating the phagocytic activity of macrophages, the animals were tested on the third day after administration of peptone. Further testing was carried out similarly with that of neutrophils. The results were evaluated using a microscope at a magnification of 90×. Phagocytic index and phagocytic number were determined.

In experiment [4] the test system is macrophages, interleukins and other acute phase proteins. As to conditions: e.g. patients with malignant tumors; dose range of 10 to 1000 mg; cited from earlier work.
The mark [5] stands for this setting: third dose group, dose cell empty.
[6] abbreviates: Acute gastroenteritis, 4 patients.
[7] abbreviates: Alimentary toxoinfection, 4 patients.

The values below come from patent US20030195183A1, “Method for correcting immune system of live body” (priority 2000, published 2003).

Values joined by “and” are separate entries in the source; they are usually repeats but may differ in a detail not shown here. Equal entries are not always repeated.

Regarding `Nc1cccc2c(=O)[nH][nH]c(=O)c12.[K]` [potassium salt of 5-amino-2,3-dihydrophthalazine-1,4-dione], in experiment [1] (dose 20 μg), the “Phagocytic Index, Study Group, Mean” value came to 7.8 ± 0.04; the “Phagocytic number, Study Group, Mean” value worked out at 89 ± 1.25; the “Phagocytic Index, Study Group” value was 3.9 and 2.8 and 4.6 and 6.8 and 13.2 and 9.1 and 16.3 and 5.2; the “Phagocytic number, Study Group” value was 80 and 96 (2×) and 88 and 94 and 84 (2×) and 86. In experiment [1] (dose 200 μg), the “Phagocytic Index, Study Group, Mean” value is on record as 6.0 ± 0.04; the “Phagocytic number, Study Group, Mean” value is reported as 77 ± 0.26; the “Phagocytic Index, Study Group” value was 5.6 and 4.7 and 9.1 and 6.4 and 7.4; the “Phagocytic number, Study Group” value is 78 and 85 and 84 and 71 and 67. In addition, in experiment [1] (doses of 20 and 2 μg), the “ability of neutrophils population to intake microbial cells” value is “statistically significant increase” and the “effect on digestive activity of neutrophils” value is “practically no effect”. For the same compound, in experiment [1] (setting [5]), the “Phagocytic Index, Study Group, Mean” value was 6.0 ± 0.16; the “Phagocytic number, Study Group, Mean” value was found to be 86 ± 0.32; the “Phagocytic Index, Study Group” value was 6.4 (2×) and 4.5 and 7.4 and 5.6; the “Phagocytic number, Study Group” value was 88 and 92 (2×) and 78 and 84. For the same compound, the “patients with "excellent" or "good" effect” value in experiment [2] (20 patients with various forms of AII) is 90 % of patients. Further, in experiment [2] (Acute dysentery, 9 patients), the “Efficacy of the preparation: Excellent (number of patients)” value (“Efficacy of the preparation: Excellent” for short) is reported as 1, the “Efficacy of the preparation: Good (number of patients)” value (“Efficacy of the preparation: Good” for short) was found to be 7 and the “Efficacy of the preparation: Satisfactory (number of patients)” value came to 1. In addition, in experiment [2] (setting [6]), the “Efficacy of the preparation: Excellent” value is on record as 2, the “Efficacy of the preparation: Good” value stood at 1 and the “Efficacy of the preparation: Satisfactory (number of patients)” value stood at 1. In experiment [2] (setting [7]), the “Efficacy of the preparation: Excellent” value is 1 and the “Efficacy of the preparation: Good” value is recorded as 3. Besides, in experiment [2] (Salmonellosis, 3 patients), the “Efficacy of the preparation: Excellent” value came out at 1 and the “Efficacy of the preparation: Good” value was 2. Also, in experiment [2] (Total, 20 patients), the “Efficacy of the preparation: Excellent” value was 5, the “Efficacy of the preparation: Good” value is reported as 13 and the “Efficacy of the preparation: Satisfactory (number of patients)” value amounted to 2. Moreover, in experiment [2] (of 20 patients), the “patients in whom the intoxication syndrome resolved within 1 to 3 days ("complete decrease")” value is reported as 19 patients; the “patients with "insignificant decrease" in the first days and "complete decrease" by the 5th day of treatment” value is “one”. Also, the “patients with "excellent" or "good" effect” value in experiment [2] (of 20 patients with various forms of AII) came to 18 patients. In experiment [3] (dose 200 μg), the “stimulating effect on phagocytic cells / phagocytic activity in vivo” value is “no stimulating effect”. Besides, the “ability of phagocytic cells to intake microbial cells” value in experiment [3] (doses of 2 ug and 20 ug) is “statistically significant increase”. For the same compound, the “phagocytic activity of macrophages in mice” value in experiment [3] (doses ranging from 200 to 2 μg) is recorded as “stimulating effects”.
For `Nn1[n-]c(=O)c2ccccc2c1=O.O.O.[Na+]` [sodium salt of 2-amino-1,2,3,4-tetrahydrophthalazine-1,4-dione, dihydrate], the “effect in patients with weak cellular immunity reactions” value in experiment [4] was “activation of macrophages, interleukins and other acute phase proteins”.
